Here are results for twelve substances from patent US7402559B2, “Composition and method of treatment for urogenital conditions” (MSH Pharma, Incorporated, priority 1999, dated 2008).

For test [1] the following is noted: relative to parent peptide or to the 11-13 sequence; cited from earlier work.
Another test has as its system S. aureus (ATCC 29213). The experiment in a line: S. aureus colony formation (viability). To be noted: FIG. 1; significant at peptide concentrations of 10^−12 to 10^−4 M; 2 h at 37° C. The format is cell-based, Staphylococcus aureus. The method, then:
(§1) Cultures of S. aureus (ATCC 29213) were obtained from the collection of the Department of Microbiology, Ospedale Maggiore di Milano. […] Cells were then washed in cold distilled water and diluted with HBSS to a concentration of 100 organisms/ml. One-milliliter aliquots were dispensed on blood agar plates and incubated for 24 hours at 37° C. Viability of the microorganisms was estimated from the colonies formed. In another set of experiments, 500 units of urokinase, a S. aureus growth enhancer, were also incubated with the bacteria (10^5/100 ml ) for four hours at 37° C. in a shaking water bath together with the peptides.

A further test deals with S. aureus. The experiment in a line: Urokinase induced growth of S. aureus. It is filed as cell-based, Staphylococcus aureus. To be noted: FIG. 2; 10^−6 M peptide; 500 units urokinase, 4 h. The method, then: as §1
Test [2] deals with C. albicans. The experiment in a line: C. albicans colony formation (CFU viability). It is filed as cell-based, Candida albicans. To be noted: for ability of C albicans to form colonies: FIG. 3, 10^−12 to 10^−4 M, p<0.01 vs. control; for effectiveness against C. albicans compared with fluconazole / C. albicans viability: FIG. 4; for effectiveness against C. albicans compared with fluconazole: 10^−6 to 10^−4 M, same molar concentration as fluconazole. The method, then:
Clinical isolates of C. albicans were obtained from the collection of the Department of Microbiology, Ospedale Maggiore di Milano. Cultures of C. albicans were maintained on Sabouraud's agar slants and periodically transferred to Sabouraud's agar plates and incubated for 48 hours at 28° C. To prepare stationary growth-phase yeast, a colony was taken from the agar plate, transferred into 30 ml of Sabouraud-dextrose broth, and incubated for 72 hours at 32° C. Cells were centrifuged at 1000× g for ten minutes, and the pellet was washed twice with distilled water. Cells were counted and suspended in Hank's balanced salt solution (“HBSS”) to the desired concentration.
Cells were then washed in cold distilled water and diluted with HBSS to a concentration of 100 organisms/ml. One-milliliter aliquots were then dispensed on blood agar plates and incubated for 48 hours at 37° C. The organism's viability was estimated from the number of colonies formed.
[…] The effects of forskolin and ddAdo on the ability of C. albicans to form colonies were determined according to the procedures described in Example II.

For test [3], the system named is C. albicans. The test can be described thus: Neutrophil killing of C. albicans. It is filed as cell-based, human neutrophils; Candida albicans. To be noted: FIG. 6; 10^−12 to 10^−4 M; p<0.01. The method, then:
Venous blood (20 ml) from healthy volunteers was anticoagulated with heparin. Neutrophils were then isolated using dextran sedimentation and centrifugation with Ficoll-Hypaque (Sigma Chemical Co., St. Louis, Mo., USA). Erythrocytes were lysed via hypotonic shock with the resulting neutrophils representing at least 97% of the cell suspension. Cell viability, estimated by trypan blue exclusion, was greater than 98%. Neutrophils were resuspended in HBSS for the experiments. […] After incubation, the culture tubes were placed on ice to stop growth, and extracellular organisms were washed twice with centrifugation at 1000-× g at 4° C. A 2.5% sodium deoxycholate solution was added to the suspension, and the tubes were shaken for five minutes. Cold distilled water was then added to obtain a suspension of 10^6 cells/ml. Two 1/100 serial dilutions in HBSS were made to obtain a final suspension of 100 cells/ml. One-milliliter aliquots were then dispensed on blood agar plates and incubated for 48 hours at 37° C. Colony forming units were counted at the end of the incubation period with experiments running in triplicate and repeated using blood from five different donors.

In test [4] the test system is C. albicans. The test can be described thus: cAMP content in permeabilized C. albicans (enzyme immunoassay). To be noted: FIG. 7; 10^−6 M, three minutes. The format is cell-based, Candida albicans. How it is done: The reactions were stopped after three minutes by the addition of ice cold ethanol. cAMP levels were measured in duplicate using a commercial enzyme immunoassay kit (Amersham, United Kingdom) after extraction via the liquid-phase method according to the manufacturer's instructions.

The subject of test [5] is HIV-1. The conditions noted are these: FIG. 11; 10^−5 M. An excerpt:
(§2) The chronically HIV-1 infected promonocytic U1 cell line is an in vitro model of latent HIV infection in monocytes. These cells carry two integrated proviral copies of HIV, and constitutive expression of HIV is very low. Viral replication, however, as measured by RNA transcription, p24 antigen, or reverse transcriptase release, can be activated with different stimuli such as TNF-α, IL-6, IL-10, PMA or crowding of cells.
(§3) Crowding was achieved by seeding U1 cells at a density of 2×10^5/ml and maintaining them in culture at 37° C. in 5% CO2 without changing media for seven days. Cultures activated with cytokines or PMA were maintained for only 48 hours. Supernatants were then removed by centrifugation and assayed for p24 antigen using commercially available ELISA kits from Cellular Products, Inc. in Buffalo, N.Y., USA. Reverse transcriptase releases were also measured using a commercially available kit, ELISA Retrosys RT assay from Innovagen, Lund, Sweden.

A further test concerns NF-κB. How it is done:
Cells were washed once with cold PBS, and twice with buffer A (10 mM Hepes pH 7.9, 1.5 mM MgCl2, 10 mM KCl, 0.5 mM PMSF and 0.5 mM DTT), centrifuged, and incubated for ten minutes on ice in buffer A plus 0.1% NP-40. Afterwards, the supernatants were removed, and the nuclear pellets were resuspended in 15 μl of buffer C (20 mM Hepes pH 7.9, 1.5 mM MgCl2, 0.42 M KCl, 0.2 mM EDTA, 25% glycerol, 0.5 mM PMSF, and 0.5 mM DTT), incubated for 15 minutes on ice, mixed, and then centrifuged. The supernatants were diluted with 75 μl of modified buffer D (20 mM Hepes, pH 7.9, 0.05 mM KCl, 0.2 mM EDTA, 20% glycerol, 0.5 mM PMSF, and 0.5 mM DTT) and stored at −80° C. […] Each oligonucleotide was annealed to its complementary strand and end-labeled with ^32P-γ-ATP using polynucleotide kinase. For the determination of specific bands, nuclear extracts were first incubated with 100 fold excess unlabeled probe for five minutes, before incubation with a labeled probe. […] The gels were dried and autoradiographed.

In a further test the test system is HIV-1 RNA. The conditions noted are these: FIG. 12; PMA stimulated U1 cells.
The conditions of test [6]: relative to L-form tripeptide alpha-MSH (11-13); cited from earlier work.
Test [7] relates to C. albicans. The experiment in a line: C. albicans germ tube formation induced by horse serum. The format is cell-based, Candida albicans. To be noted: 10^−6 M, 60 minutes at 37° C., germ tubes induced by horse serum. How it is done:
C. albicans from stationary phase cultures were washed twice with distilled water and suspended in HBSS to a final concentration of 2×10^6/ml. Hyphal growth was induced by addition of 10% inactivated horse serum (GIBCO/BRL, Paisley, Great Britain) to yeast incubated for 45 minutes at 37° C. with continuous shaking. […] The percentage of filamentous cells was evaluated under a light microscope with the aid of a hemocytometer. Experiments were run in triplicate and at least 200 cells were scored. Photomicrographs were taken with a MC100 camera attached to an Axioskop Zeiss microscope.

Test [8] concerns HIV-1. To be noted: FIG. 10; broad range of concentrations; TNF-α 10 ng/ml.
Text: as §2
Pilot experiments were first performed to determine optimal cell density, stimuli concentration, and kinetics of HIV-1 p24 antigen production using these culture conditions. Before use, cells were washed three times with HBSS to remove extracellular viruses.
as §3

As for “8-13 sequence: alpha-MSH 8-13 fragment (RWGKPV; Designed polypeptide with anti-inflammatory, anti-microbial, anti-fungal, and anti-viral properties.)”, in [1], the antipyretic potency entry is “greater than that of the 11-13 sequence”.
On to “Lysine-Proline-Valine [alpha-MSH (11-13)]”, for which, in the test with S. aureus (ATCC 29213), the “S. aureus colony formation” value is listed as “inhibited”. Also, in the test on S. aureus, the “growth enhancing effect of urokinase on S. aureus” value was “significantly countered”. Moreover, in the test with C. albicans [2], the “ability of C albicans to form colonies” value is recorded as “greatly reduced” and the “effectiveness against C. albicans compared with fluconazole” value (“effectiveness … compared with fluconazole” below) is listed as “most effective”. The “growth of C. albicans relative to the control group” value in the test on C. albicans [2] (FIG. 8, p<0.01) is “significantly inhibited”. For the same substance, the “neutrophil killing of C. albicans” value with C. albicans [3] is on record as “enhanced”. Also, the “cAMP content in C. albicans” value in the test with C. albicans [4] is given as “enhanced”. For the same substance, the “reverse transcriptase release from U1 cells induced by IL-6, IL-10, PMA and in crowding condition” value with HIV-1 [5] is “inhibited”. In the test with NF-κB, the “NF-κB activation, TNF-α stimulated cells” value is “significantly reduced” and the “NF-κB activation, resting cells” value is recorded as “did not alter”. The “transcription of spliced and unspliced HIV-1 RNA” value in the test with HIV-1 RNA is “inhibited”.
With “Ac-[D-K11]-alpha-MSH 11-13-NH2 [reference compound]”, the “anti-inflammatory activity / general potency” value in test [6] is “same general potency”.
In the case of “9-13 sequence: alpha-MSH 9-13 fragment (WGKPV; Designed polypeptide with anti-inflammatory, anti-microbial, anti-fungal, and anti-viral properties.)”, in test [1], the antipyretic potency result is “almost devoid of activity”.
Take SYSMEHFRWGKPV [alpha-MSH (1-13)]: the “S. aureus colony formation” value in the test on S. aureus (ATCC 29213) is given as “inhibited”. In the test on S. aureus, the “growth enhancing effect of urokinase on S. aureus” value is listed as “significantly countered”. Moreover, in the test on C. albicans [2], the “ability of C albicans to form colonies” value is on record as “greatly reduced” and the “effectiveness … compared with fluconazole” value is “most effective”. For the same substance, the “reduction in the number of filamentous cells” value in the test on C. albicans [7] is on record as 28-32%. For the same substance, the “neutrophil killing of C. albicans” value with C. albicans [3] is “enhanced”. Besides, the “cAMP content in C. albicans” value with C. albicans [4] is recorded as “enhanced”. In addition, in the test on HIV-1 [8], the “p24 antigen release from TNF-α stimulated U1 cells” value is recorded as “significantly inhibited”.
Take “ACTH (1-39): adrenocorticotropic hormone (1-39) (SYSMEHFRWGKPVGKKRRPVKVYPAGEDDEASEAFPLEF; Designed polypeptide with anti-inflammatory, anti-microbial, anti-fungal, and anti-viral properties/naturally occurring peptide.; listed as Homo sapiens) [reference compound]”: the C. albicans viability result with C. albicans [2] is given as “did not reduce”.
On the same count and under the same terms, the result for “ACTH fragment (18-39): ACTH fragment (18-39) (CLIP) (RPVKVYPAGEDDEASEAFPLEF; Designed polypeptide with anti-inflammatory, anti-microbial, anti-fungal, and anti-viral properties.) [reference compound]” reads “did not reduce”.
In the case of “dideoxyadenosine [ddAdo, reference compound]”, in the test on C. albicans [2] (FIG. 9, ddAdo 25, 50, and 100×10^−5 M for two hours, then peptides two hours), the “effect of ddAdo on alpha-MSH (1-13) and (11-13) inhibition of C. albicans growth” value is listed as “reverse the effect”.
In the case of MEHFRWG [alpha-MSH sequence (4-10)], the “anti-inflammatory activity / general potency” value in test [6] is “little antipyretic and anti-inflammatory activity”.
In the case of “10-13 sequence: alpha-MSH (11-13) with glycine added to form the 10-13 sequence (GKPV; Designed pollypeptide with anti-inflammatory, anti-microbial, anti-fungal, and anti-viral properties.)”, the antipyretic potency entry in test [1] was “slightly decreased potency”.
As to [Nle^4, D-Phe^7]-alpha-MSH, the antipyretic potency result in test [1] is given as “approximately ten times more potent”.
For the substance “HFRWGKPV (Ac-HFRWGKPV-NH2) [alpha-MSH (6-13)]”, in the test on C. albicans [2], the “effectiveness … compared with fluconazole” value is recorded as “most effective”. Besides, the “reduction in the number of filamentous cells” value in the test with C. albicans [7] was “approximately 50%”.
